Data reported in US20200338028A1, “BENZENESULFONAMIDE DERIVATIVES AND METHOD FOR MODULATING LIPID RAFT” (Gongwin Biopharm Co., Ltd., priority 2017, published 2020).
Peptide text beside a SMILES is read from it. * marks the point of attachment. Cbz = O=C(OCc1ccccc1)*; CH2F = FC*

Assays:
Type in all cases: cell-based, human
PC-3 cells [1] = assay: PTS-induced apoptosis with Z-VAD-FMK (PI staining and nucleosomal DNA fragmentation assay); details: PC-3, 24 hours, FIG. 2E and 2F
Procedure: Flow cytometric analysis was performed as follows. Cells were harvested by trypsinization, fixed with 70% (v/v) alcohol at 4° C. for 30 min and washed with PBS. After centrifugation, the cells were incubated in phosphate-citric acid buffer (0.2 mol/l NaHPO4, 0.1 mol/l citric acid, pH 7.8) for 30 min at room temperature. The cells were then centrifuged and resuspended with 0.5 ml propidium iodide (PI) solution containing Triton X-100 (0.1% v/v), RNase (100 μg/ml) and PI (80 μg/ml). DNA content was analyzed with the FACScan and CellQuest software (Becton Dickinson, Mountain View, Calif., United States).
The DNA fragmentation was determined for cell death determination by use of the Cell Death Detection ELISAplus kit (Roche, Mannheim, Germany) The assay was based on the quantitative in vitro determination of cytoplasmic histone-associated DNA fragments (mono- and oligonucleosomes) after induced cell death. After the treatment with the compound, the cells were lysed and centrifuged, and the supernatant was used for the detection of nucleosomal DNA according to the manufacturer's protocol.

PC-3 cells [2] = assay: Western blot of Bcl-2 family members, cell cycle regulators and Akt/mTOR/p70S6K pathway signals; details: PC-3, 1 h, FIGS. 6A to 6D
Procedure: (§1) In addition, protein expression assay of each Mcl-1, Bcl-2, Bid, PUMA and Bak was performed by western blotting with methods described as follows. After treatment of PC-3 and DU145 cells with p-TSA, the cells were harvested with trypsinization, centrifuged and lysed in 0.1 ml of lysis buffer containing 10 mM Tris-HCl (pH 7.4), 150 mM NaCl, 1 mM EGTA, 1% Triton X-100, 1 mM PMSF, 10 μg/ml leupeptin, 10 μg/ml aprotinin, 50 mM NaF and 100 μM sodium orthovanadate. Total protein was quantified, mixed with the sample buffer and boiled at 90° C. for 5 min. Equal amount of protein (30 μg) was separated by electrophoresis in 8% or 12% SDS-PAGE, transferred to PVDF membranes and detected with specific antibodies (1:1000 dilution) for each of Mcl-1, Bcl-2, Bid, PUMA and Bak proteins. The immunoreactive proteins after incubation with appropriately labeled secondary antibody (1:3000 dilution) were detected with an enhanced chemiluminescence detection kit (Amersham, Buckinghamshire, United Kingdom). […] These effects were correlated with the mitochondrial stress.
(§2) During G1 phase, cells grow in size and synthesize mRNA and proteins which are necessary to DNA synthesis. The serine/threonine kinases mTOR and p70S6K that regulate protein synthesis (mRNA translation) through affecting the phosphorylation or activities of several downstream translation factors are critical regulators in G1 phase. Protein expression assay of each Akt, mTOR 4E-BP1 and p70S6K was performed by Western blotting.

DU-145 cells = assay: as above
Procedure: as §1, §2

PC-3 cells [3] = assay: colony formation (clonogenic) assay; details: PC-3, PTS 1.5 mM, 10 days, FIG. 6E
Procedure: To assay the anchorage-dependent clonogenic effect, each individual PC-3 and DU-145 cells (150 cells/well) were seeded in a 6-well plate. After a 10-day treatment with p-TSA, the cell colonies were rinsed with phosphate-buffered saline (PBS), stained with 0.4% (w/v) crystal violet dissolved in 20% methanol, and lysed by 50 mM sodium citrate dissolved in 50% ethanol. The absorbance was read at a wavelength of 595 nm.
To further substantiate the role of Akt, the Myr-Akt overexpressed PC-3 cells were prepared with the method shown as follows. The plasmid encoding Myr-Akt, an N-terminally myristoylation signal-attached Akt, was a gift from Professor Mien-Chie Hung (The University of Texas, M.D. Anderson Cancer Center). For transfection, PC-3 cells were seeded into 60-mm tissue culture dishes with 30% confluence and grown for 24 h to 50-60% confluence. Each dish was washed with serum-free Opti-MEM (Life Technologies), and 2 ml of the serum-free Opti-MEM was then added. Aliquots containing Myr-Akt expression vector or a control plasmid in serum-free Opti-MEM were transfected into cells using Lipofectamine 2000 (Invitrogen) following the manufacturer's instructions. After incubation for 6 h at 37° C., cells were washed with serum-free Opti-MEM and incubated in 10% FBS-containing RPMI-1640 medium for 48 h. The cells were treated with or without p-TSA and then the related analyses were performed. […] Furthermore, the functional rescue of Myr-Akt was determined. […] However, overexpression of Myr-Akt had minimal effect on p-TSA-induced cyclin D1 down-regulation.

[4] = particularly in DU-145 cells, 1 h

`COC(=O)C[C@H](NC(=O)[C@H](C)NC(=O)[C@@H](NC(=O)OCc1ccccc1)C(C)C)C(=O)CF` [Z-VAD-FMK] (Cbz-Val-Ala-Asp(OMe)-CH2F) was tested, and the “effect of Z-VAD-FMK on PTS-induced apoptosis” value (PC-3 cells [1]) was “profoundly inhibited PTS-induced apoptosis”.

`CC(C)CCC[C@@H](C)[C@H]1CC[C@H]2[C@@H]3CC=C4C[C@@H](O)CC[C@]4(C)[C@H]3CC[C@]12C` [cholesterol, reference compound] was tested, and the “effect of cholesterol supplement on p-TSA-induced decrease of Akt and p70S6K phosphorylation” value (PC-3 cells [2]) was “significantly rescued”, the “effect of cholesterol supplement on p-TSA-induced decrease of Akt and p70S6K phosphorylation” value (DU-145 cells; DU-145, 1 h, FIGS. 6A to 6D) was “significantly rescued” and the “Akt phosphorylation, cholesterol by itself” value (DU-145 cells; [4]) was “increase”. The “cyclin D1 protein expression, cholesterol by itself” value (DU-145 cells; [4]) was “decrease” and the “effect of cholesterol on PTS-induced inhibition of cell growth, colony formation assay” value (PC-3 cells [3]) was “significantly rescued PTS-induced inhibition of cell growth”.
